Converted amounts (≈) assume the structure as drawn. Where two headings read alike, the source gives them in different places.
What was measured:
Assay type in all cases: cell-based
[1] = system: Providencia stuardii CNUR 5; experiment: MIC test, agar dilution with Steers multiwell inoculator; settings: CNUR5, TSA dishes, 24 h at 35°C, read-out: Minimum Inhibiting Concentration
Description: (§1) As to the antibacterial activity, there was determined the Least (Minimum) Inhibiting Concentration (MIC), by working according to the following operative conditions.
(§2) There were used suspensions of test germs (5 gram-positive and 15 gram-negative) having a known titre, kept freezed at -80°C and diluted, at the time of use, in peptonized water up to a concentration of 1-2.10⁷ cfu/ml.
(§3) A few mg of the products, according to the invention were weighed sufficient for preparing parent solutions in DMSO + NaOH (1N) containing 2560 µg/ml (64µg/ml/dish). From the thus prepared parent solutions there were prepared 12 serial dilutions (1:2) down to the concentration of 1.25 µg/ml.
(§4) 0.5 ml of the different dilutions of each product were distributed on dishes containing 19.5 ml of agarized medium (TSA), maintained in a fluid state at the temperature of 50°C. After slight stirring, the dishes were made to solidify and dry under hood (laminar flow).
(§5) The MIC tests (Least or "Minimum" Inhibiting Concentration) were performed by using a Steers multiwell inoculator having 36 wells, each containing 200 µl of bacterial suspension.
(§6) After inoculation, the dishes were placed into a thermostat and checked after 24 h of incubation at 35°C.
(§7) The MIC is defined as the lowermost product concentration (µg/ml) inhibiting the visible growth of the microorganisms.

Escherichia coli CNUR 8 = experiment: as above; settings: CNUR8, TSA dishes, 24 h at 35°C, read-out: Minimum Inhibiting Concentration
Description: as §1, §2, §3, §4, §5, §6, §7

[2] = system: Staphylococcus aureus ATCC 6538; experiment: as above; settings: ATCC6538, TSA dishes, 24 h at 35°C, read-out: Minimum Inhibiting Concentration
Description: as §1, §2, §3, §4, §5, §6, §7

[3] = system: Pseudomonas aeruginosa CNUR 4; experiment: as above; settings: CNUR4, TSA dishes, 24 h at 35°C, read-out: Minimum Inhibiting Concentration
Description: as §1, §2, §3, §4, §5, §6, §7

[4] = system: Pseudomonas aeruginosa CNUR 2; experiment: as above; settings: CNUR2, TSA dishes, 24 h at 35°C, read-out: Minimum Inhibiting Concentration
Description: as §1, §2, §3, §4, §5, §6, §7

[5] = system: Enterobacter cloacae OMNF 1153; experiment: as above; settings: OMNF1153, TSA dishes, 24 h at 35°C, read-out: Minimum Inhibiting Concentration
Description: as §1, §2, §3, §4, §5, §6, §7

Escherichia coli 120 = experiment: as above; settings: TSA dishes, 24 h at 35°C, read-out: Minimum Inhibiting Concentration
Description: as §1, §2, §3, §4, §5, §6, §7

[6] = system: Pseudomonas aeruginosa ATCC 9027; experiment: as above; settings: ATCC9027, TSA dishes, 24 h at 35°C, read-out: Minimum Inhibiting Concentration
Description: as §1, §2, §3, §4, §5, §6, §7

[7] = system: Staphylococcus epidermidis HCF Berset C.; experiment: as above; settings: TSA dishes, 24 h at 35°C, read-out: Minimum Inhibiting Concentration
Description: as §1, §2, §3, §4, §5, §6, §7

[8] = system: Staphylococcus epidermidis CPHL A2; experiment: as above; settings: CPHLA2, TSA dishes, 24 h at 35°C, read-out: Minimum Inhibiting Concentration
Description: as §1, §2, §3, §4, §5, §6, §7

[9] = system: Acinebacter calcoloaceticus OSMPV 1130; experiment: as above; settings: TSA dishes, 24 h at 35°C, read-out: Minimum Inhibiting Concentration
Description: as §1, §2, §3, §4, §5, §6, §7

[10] = system: Klebsiella pneumoniae ATCC 10031; experiment: as above; settings: ATCC10031, TSA dishes, 24 h at 35°C, read-out: Minimum Inhibiting Concentration
Description: as §1, §2, §3, §4, §5, §6, §7

[11] = system: Staphylococcus aureus MPR 5; experiment: as above; settings: MPR5, TSA dishes, 24 h at 35°C, read-out: Minimum Inhibiting Concentration
Description: as §1, §2, §3, §4, §5, §6, §7

[12] = system: Enterobacter cloacae OMNF 1174; experiment: as above; settings: OMNF1174, TSA dishes, 24 h at 35°C, read-out: Minimum Inhibiting Concentration
Description: as §1, §2, §3, §4, §5, §6, §7

Escherichia coli CNUR 1 = experiment: as above; settings: CNUR1, TSA dishes, 24 h at 35°C, read-out: Minimum Inhibiting Concentration
Description: as §1, §2, §3, §4, §5, §6, §7

Escherichia coli ISF 432 = experiment: as above; settings: ISF432, TSA dishes, 24 h at 35°C, read-out: Minimum Inhibiting Concentration
Description: as §1, §2, §3, §4, §5, §6, §7

[13] = system: Streptococcus facealis LEP Br.; experiment: as above; settings: TSA dishes, 24 h at 35°C, read-out: Minimum Inhibiting Concentration
Description: as §1, §2, §3, §4, §5, §6, §7

Shighella enteritidis = experiment: as above; settings: TSA dishes, 24 h at 35°C, read-out: Minimum Inhibiting Concentration
Description: as §1, §2, §3, §4, §5, §6, §7

Proteus vulgaris CNUR 6 = experiment: as above; settings: CNUR6, TSA dishes, 24 h at 35°C, read-out: Minimum Inhibiting Concentration
Description: as §1, §2, §3, §4, §5, §6, §7

[14] = system: Escherichia coli ATCC 8739; experiment: as above; settings: ATCC8739, TSA dishes, 24 h at 35°C, read-out: Minimum Inhibiting Concentration
Description: as §1, §2, §3, §4, §5, §6, §7

Gram + = experiment: MIC test, average over the 5 gram-positive test germs; settings: 24 h
Description: as §1, §2, §3, §4, §5, §6, §7

Gram - = experiment: MIC test, average over the 15 gram-negative test germs; settings: 24 h
Description: as §1, §2, §3, §4, §5, §6, §7

[15] = geometrical average of the MIC over the 15 Gram - strains, read-out: Geometrical Average
[16] = mean log of the MIC over the 15 Gram - strains, read-out: Log (converted)
[17] = geometrical average of the MIC over the 5 Gram + strains, read-out: Geometrical Average

| Compound | MIC [1] | MIC (Escherichia coli CNUR 8) | MIC [2] | MIC [3] | MIC [4] | MIC [5] | MIC (Escherichia coli 120) | MIC [6] | MIC [7] | MIC [8] | MIC [9] | MIC [10] | MIC [11] | MIC [12] | MIC (Escherichia coli CNUR 1) | MIC (Escherichia coli ISF 432) | MIC [13] | MIC (Shighella enteritidis) | MIC (Proteus vulgaris CNUR 6) | MIC [14] | further results |
| --- | --- | --- | --- | --- | --- | --- | --- | --- | --- | --- | --- | --- | --- | --- | --- | --- | --- | --- | --- | --- | --- |
| CN1CCN(c2nc3c(c(N)c2N)c(=O)c(C(=O)O)cn3C2CC2)CC1 [Compound 42] | 4 µg/mL (≈ 11.2 µM) | 0.25 µg/mL (≈ 0.698 µM) | 2 µg/mL (≈ 5.58 µM) | 128 µg/mL (≈ 357 µM) | 16 µg/mL (≈ 44.6 µM) | 1 µg/mL (≈ 2.79 µM) | 0.25 µg/mL (≈ 0.698 µM) | 8 µg/mL (≈ 22.3 µM) | 4 µg/mL (≈ 11.2 µM) | 4 µg/mL (≈ 11.2 µM) | 4 µg/mL (≈ 11.2 µM) | 0.06 µg/mL (≈ 0.167 µM) | 2 µg/mL (≈ 5.58 µM) | 1 µg/mL (≈ 2.79 µM) | 1 µg/mL (≈ 2.79 µM) | 0.06 µg/mL (≈ 0.167 µM) | 16 µg/mL (≈ 44.6 µM) | 0.5 µg/mL (≈ 1.4 µM) | 64 µg/mL (≈ 179 µM) | 0.06 µg/mL (≈ 0.167 µM) | MIC (Gram +; read-out: Log (converted)): 4 µg/mL (≈ 11.2 µM); MIC (Gram -; [15]): 1.37 µg/mL (≈ 3.83 µM); MIC (Gram -; [16]): 1.37 µg/mL (≈ 3.82 µM) |
| Nc1cc2c(=O)c(C(=O)O)cn(C3CC3)c2cc1N1CCNCC1 [Compound 9] | 32 µg/mL (≈ 97.5 µM) | 0.25 µg/mL (≈ 0.761 µM) | 64 µg/mL (≈ 195 µM) | 64 µg/mL (≈ 195 µM) | 8 µg/mL (≈ 24.4 µM) | 0.5 µg/mL (≈ 1.52 µM) | 0.25 µg/mL (≈ 0.761 µM) | 2 µg/mL (≈ 6.09 µM) | 16 µg/mL (≈ 48.7 µM) | 16 µg/mL (≈ 48.7 µM) | 16 µg/mL (≈ 48.7 µM) | 0.25 µg/mL (≈ 0.761 µM) | 64 µg/mL (≈ 195 µM) | 0.25 µg/mL (≈ 0.761 µM) | 0.25 µg/mL (≈ 0.761 µM) | 0.03 µg/mL (≈ 0.0914 µM) | 128 µg/mL (≈ 390 µM) | 0.5 µg/mL (≈ 1.52 µM) | 32 µg/mL (≈ 97.5 µM) | 0.25 µg/mL (≈ 0.761 µM) | MIC (Gram +; [17]): 42.2 µg/mL; MIC (Gram +; read-out: Log (converted)): 42.2 µg/mL (≈ 128 µM); MIC (Gram -; [15]): 1.26 µg/mL (≈ 3.82 µM); MIC (Gram -; [16]): 1.26 µg/mL (≈ 3.83 µM) |
| Cc1c(N2CCNCC2)c(N)cc2c(=O)c(C(=O)O)cn(C3CC3)c12 [Compound 34] | 2 µg/mL (≈ 5.84 µM) | 0.06 µg/mL (≈ 0.175 µM) | 1 µg/mL (≈ 2.92 µM) | 16 µg/mL (≈ 46.7 µM) | 16 µg/mL (≈ 46.7 µM) | 0.25 µg/mL (≈ 0.73 µM) | 0.12 µg/mL (≈ 0.35 µM) | 4 µg/mL (≈ 11.7 µM) | 2 µg/mL (≈ 5.84 µM) | 1 µg/mL (≈ 2.92 µM) | 4 µg/mL (≈ 11.7 µM) | 0.06 µg/mL (≈ 0.175 µM) | 2 µg/mL (≈ 5.84 µM) | 0.12 µg/mL (≈ 0.35 µM) | 0.12 µg/mL (≈ 0.35 µM) | 0.06 µg/mL (≈ 0.175 µM) | 8 µg/mL (≈ 23.4 µM) | 0.06 µg/mL (≈ 0.175 µM) | 8 µg/mL (≈ 23.4 µM) | 0.12 µg/mL (≈ 0.35 µM) | MIC (Gram +; [17]): 2 µg/mL; MIC (Gram +; read-out: Log (converted)): 2 µg/mL (≈ 5.84 µM); MIC (Gram -; [15]): 0.51 µg/mL (≈ 1.49 µM); MIC (Gram -; [16]): 0.513 µg/mL (≈ 1.5 µM) |
| CC1CN(c2cc3c(cc2N)c(=O)c(C(=O)O)cn3C2CC2)CC(C)N1 (centres unmarked) [Compound 11] | 2 µg/mL (≈ 5.61 µM) | 0.25 µg/mL (≈ 0.701 µM) | 8 µg/mL (≈ 22.4 µM) | 64 µg/mL (≈ 180 µM) | 8 µg/mL (≈ 22.4 µM) | 0.5 µg/mL (≈ 1.4 µM) | 0.12 µg/mL (≈ 0.337 µM) | 2 µg/mL (≈ 5.61 µM) | 4 µg/mL (≈ 11.2 µM) | 2 µg/mL (≈ 5.61 µM) | 8 µg/mL (≈ 22.4 µM) | 0.03 µg/mL (≈ 0.0842 µM) | 8 µg/mL (≈ 22.4 µM) | 0.5 µg/mL (≈ 1.4 µM) | 0.25 µg/mL (≈ 0.701 µM) | 0.03 µg/mL (≈ 0.0842 µM) | 32 µg/mL (≈ 89.8 µM) | 0.25 µg/mL (≈ 0.701 µM) | 64 µg/mL (≈ 180 µM) | 0.03 µg/mL (≈ 0.0842 µM) | MIC (Gram +; [17]): 6.96 µg/mL; MIC (Gram +; read-out: Log (converted)): 6.97 µg/mL (≈ 19.5 µM); MIC (Gram -; [15]): 0.75 µg/mL (≈ 2.1 µM); MIC (Gram -; [16]): 0.75 µg/mL (≈ 2.1 µM) |
| CC(C)(C)n1cc(C(=O)O)c(=O)c2cc(N)c(N3CCSCC3)cc21 [Compound 46, 6-amino-1-terbutyl-7-(1-thiomorpholinyl)-1,4-dihydro-4-oxo-quinoline carboxylic acid] | 4 µg/mL (≈ 11.1 µM) | 0.25 µg/mL (≈ 0.692 µM) | 0.25 µg/mL (≈ 0.692 µM) | 128 µg/mL (≈ 354 µM) | 16 µg/mL (≈ 44.3 µM) | 2 µg/mL (≈ 5.53 µM) | 0.25 µg/mL (≈ 0.692 µM) | 4 µg/mL (≈ 11.1 µM) | 0.5 µg/mL (≈ 1.38 µM) | 0.5 µg/mL (≈ 1.38 µM) | 0.5 µg/mL (≈ 1.38 µM) | 0.03 µg/mL (≈ 0.083 µM) | 0.25 µg/mL (≈ 0.692 µM) | 2 µg/mL (≈ 5.53 µM) | 1 µg/mL (≈ 2.77 µM) | 0.03 µg/mL (≈ 0.083 µM) | 8 µg/mL (≈ 22.1 µM) | 2 µg/mL (≈ 5.53 µM) | 128 µg/mL (≈ 354 µM) | 0.06 µg/mL (≈ 0.166 µM) | MIC (Gram +; [17]): 0.66 µg/mL; MIC (Gram +; read-out: Log (converted)): 0.659 µg/mL (≈ 1.82 µM); MIC (Gram -; [15]): 1.31 µg/mL (≈ 3.62 µM); MIC (Gram -; [16]): 1.31 µg/mL (≈ 3.62 µM) |

— EP0531958A1, “6-Aminoquinolones, their synthesis and their use as antibacterial agents” (MEDIOLANUM FARMACEUTICI S.P.A., priority 1991, dated 1993)
